Each structure is given as a SMILES string.

By Kd is commonly meant a measure of binding affinity in units of concentration.

A short description of the assay: Binding affinity to human ASGR assessed as dissociation constant by SPR analysis. (SPR reads the build-up and loss of mass on a sensor chip optically.)
`CC(=O)N[C@@H]1[C@@H](O)[C@@H](O)[C@@H](CO)O[C@H]1C`: the Kd stood at 41 µM.
For the compound `O=C(N[C@H]1[C@H]2OC[C@](CO)(O2)[C@H](O)[C@@H]1O)C(F)(F)F`, the dissociation constant (Kd) came to 1.8 µM.
Turning to `C=CCO[C@H]1O[C@H](CN=[N+]=[N-])[C@H](O)[C@H](O)[C@H]1NC(C)=O`, the equilibrium dissociation constant (Kd) was found to be 1.6 µM.
Take `CC(=O)N[C@H]1[C@H]2OC[C@](CO)(O2)[C@H](O)[C@@H]1O`: the Kd came to 7.2 µM.
Turning to `C[C@@H]1O[C@H](CO)[C@H](O)[C@H](O)[C@H]1NC(=O)C(F)(F)F`, the Kd is 14.8 µM.
For `CO[C@@H]1O[C@H](CO)[C@H](O)[C@H](O)[C@H]1O`, the Kd turned out to be 880 µM.
To `CC(=O)N[C@@H]1[C@@H](O)[C@@H](O)[C@@H](CO)O[C@H]1O` belongs 40.4 µM; to `COc1cccc(-n2cc(C[C@H]3O[C@H](OCC(O)CNCc4ccccc4)[C@H](NC(=O)C(F)(F)F)[C@@H](O)[C@H]3O)nn2)c1` (stereo partly drawn), 1.2 µM.

These data come from ChEMBL document CHEMBL6182830, “Hepatocyte targeting via the asialoglycoprotein receptor” (RSC Med Chem, 2025).
